Reference: patent US20200022951A1, “MULTIVITAMIN COMPOSITION FOR IMPROVING VERBAL FLUENCY, DECREASING PERFORMANCE ANXIETY SYMPTOMS AND METHOD FOR PREPARING SAME” (priority 2017, published 2020)

Tested on: individuals with performance anxiety
Experiment: trials using the composition: anxiety and speech fluency
Type: in vivo
Details: as component of the composition of the invention

Structure (SMILES): NCCCC[C@H](N)C(=O)O [L-Lysine]
- effect on anxiety amelioration: positive effect
